From US5407932A, “Quinolone derivatives and antibacterial agents containing the same” (Wakunaga Seiyaku Kabushiki Kaisha, priority 1989, dated 1995)
≈ marks a conversion by molar mass, not a printed value.

Key:
Experiment in all cases: Minimum inhibitory concentration, standard method of the Japan Society of Chemotherapy
Assay type in all cases: cell-based
P. aeruginosa (IFO 3445) = conditions: Pseudomonas aeruginosa, IFO3445
Experimental: (§1) With respect to certain representative compounds among the compounds [I] of the present invention, their minimum inhibitory concentrations (MIC; μg/ml) were measured in accordance with the standard method established by the Japan Society of Chemotherapy [CHEMOTHERAPY, 29(1), 76-79 (1981)]. The results are summarized in Table 1, in which the compound numbers are as shown in examples.

[1] = tested on: S. aureus 209 P (IFO 12732); conditions: Staphylococcus aureus, IFO12732
Experimental: as §1

[2] = tested on: E. coli NIH JC-2 (IFO 12734); conditions: Escherichia coli, IFO12734
Experimental: as §1

Row | SMILES | MIC (P. aeruginosa (IFO 3445)) [µg/mL] | MIC [1] [µg/mL] | MIC [2] [µg/mL]
1 | O=C(O)c1cn(C2COC2)c2c(F)c(N3CCNCC3)c(F)cc2c1=O [Compound 12] | 1.56 (≈ 4.27 µM) | 1.56 (≈ 4.27 µM) | 0.2 (≈ 0.547 µM)
2 | CC1CN(c2c(F)cc3c(=O)c(C(=O)O)cn(C4COC4)c3c2F)CC(C)N1 (stereo not drawn) [Compound 14] | 3.13 (≈ 7.96 µM) | 3.13 (≈ 7.96 µM) | 0.2 (≈ 0.508 µM)
3 | O=C(O)c1cn(C2COC2)c2cc(N3CCNCC3)c(F)cc2c1=O [Compound 36] | 3.13 (≈ 9.01 µM) | 3.13 (≈ 9.01 µM) | 0.39 (≈ 1.12 µM)
4 | CN[C@@H]1CN(c2c(F)cc3c(=O)c(C(=O)O)cn(C4COC4)c3c2F)C[C@@H]1C (relative stereo) [Compound 93] | 3.13 (≈ 7.96 µM) | 1.56 (≈ 3.97 µM) | 0.78 (≈ 1.98 µM)
5 | CNC1CCN(c2c(F)c(N)c3c(=O)c(C(=O)O)cn(C4COC4)c3c2F)C1 (stereo not drawn) [Compound 50] | 1.56 (≈ 3.96 µM) | 0.78 (≈ 1.98 µM) | 0.39 (≈ 0.989 µM)
6 | CN[C@@H]1CN(c2c(F)c(N)c3c(=O)c(C(=O)O)cn(C4COC4)c3c2F)C[C@H]1C (relative stereo) [Compound 92] | 1.56 (≈ 3.82 µM) | 0.39 (≈ 0.955 µM) | 0.1 (≈ 0.245 µM)
7 | COc1c(N2CCC(N(C)C)C2)c(F)cc2c(=O)c(C(=O)O)cn(C3COC3)c12 (stereo not drawn) [Compound 77] | 12.5 (≈ 30.8 µM) | 1.56 (≈ 3.85 µM) | 1.56 (≈ 3.85 µM)
8 | NC1CCN(c2nc3c(cc2F)c(=O)c(C(=O)O)cn3C2COC2)C1 (stereo not drawn) [Compound 65] | 0.39 (≈ 1.12 µM) | 1.56 (≈ 4.48 µM) | 0.2 (≈ 0.574 µM)
9 | O=C(O)c1cn(C2COC2)c2c(F)c(N3CCC(O)CC3)c(F)cc2c1=O [Compound 15] | 6.25 (≈ 16.4 µM) | 0.39 (≈ 1.03 µM) | 0.78 (≈ 2.05 µM)
10 | Nc1c(F)c(N2CCOCC2)c(F)c2c1c(=O)c(C(=O)O)cn2C1COC1 [Compound 58] | 6.25 (≈ 16.4 µM) | 0.39 (≈ 1.02 µM) | 0.78 (≈ 2.05 µM)
11 | CNC1CCN(c2c(F)cc3c(=O)c(C(=O)O)cn(C4COC4)c3c2F)C1 (stereo not drawn) [Compound 44, 6,8-Difluoro-7-(3-methylaminopyrrolidin-1-yl)-1-(oxetan-3-yl)-1,4-dihydro-4-oxoquinoline-3-carboxylic acid] | 1.56 (≈ 4.11 µM) | 1.56 (≈ 4.11 µM) | 0.39 (≈ 1.03 µM)
12 | CN1CCN(c2c(F)cc3c(=O)c(C(=O)O)cn(C4COC4)c3c2F)CC1 [Compound 11] | 1.56 (≈ 4.11 µM) | 1.56 (≈ 4.11 µM) | 0.2 (≈ 0.527 µM)
13 | CN(C)C1CCN(c2cc3c(cc2F)c(=O)c(C(=O)O)cn3C2COC2)C1 (stereo not drawn) [Compound 39] | 6.25 (≈ 16.6 µM) | 1.56 (≈ 4.16 µM) | 0.39 (≈ 1.04 µM)
14 | CN(C)C1CCN(c2c(F)cc3c(=O)c(C(=O)O)cn(C4COC4)c3c2F)C1 (stereo not drawn) [Compound 19] | 3.13 (≈ 7.96 µM) | 1.56 (≈ 3.97 µM) | 0.2 (≈ 0.508 µM)
15 | O=C(O)c1cn(C2COC2)c2nc(N3CCCC3)c(F)cc2c1=O [Compound 72] | 3.13 (≈ 9.39 µM) | 0.2 (≈ 0.6 µM) | 0.39 (≈ 1.17 µM)
16 | COc1c(N2CCNCC2)c(F)cc2c(=O)c(C(=O)O)cn(C3COC3)c12 [Compound 81] | 3.13 (≈ 8.29 µM) | 0.78 (≈ 2.07 µM) | 0.78 (≈ 2.07 µM)
17 | CO[C@@H]1CN(c2nc3c(cc2F)c(=O)c(C(=O)O)cn3C2COC2)C[C@H]1N (relative stereo) [Compound 88] | 3.13 (≈ 8.27 µM) | 6.25 (≈ 16.5 µM) | 0.78 (≈ 2.06 µM)
18 | NCC1CCN(c2cc3c(cc2F)c(=O)c(C(=O)O)cn3C2COC2)C1 (stereo not drawn) [Compound 38] | 12.5 (≈ 34.6 µM) | 0.39 (≈ 1.08 µM) | 3.13 (≈ 8.66 µM)
19 | O=C(O)c1cn(C2COC2)c2c(F)c(N3CCOCC3)c(F)cc2c1=O [Compound 6] | 6.25 (≈ 17.1 µM) | 0.78 (≈ 2.13 µM) | 0.78 (≈ 2.13 µM)
20 | O=C(O)c1cn(C2COC2)c2c(F)c(N3CC=CC3)c(F)cc2c1=O [Compound 5] | 6.25 (≈ 17.9 µM) | 0.39 (≈ 1.12 µM) | 0.39 (≈ 1.12 µM)
21 | CO[C@@H]1CN(c2c(F)cc3c(=O)c(C(=O)O)cn(C4COC4)c3c2F)C[C@H]1N (relative stereo) [Compound 85] | 6.25 (≈ 15.8 µM) | 3.13 (≈ 7.92 µM) | 1.56 (≈ 3.95 µM)
22 | CNCC1CCN(c2c(F)cc3c(=O)c(C(=O)O)cn(C4COC4)c3c2F)C1 (stereo not drawn) [Compound 46] | 3.13 (≈ 7.96 µM) | 0.1 (≈ 0.254 µM) | 0.78 (≈ 1.98 µM)

Row | SMILES | MIC (P. aeruginosa (IFO 3445)) [µg/mL] | MIC [1] [µg/mL] | MIC [2] [µg/mL]
23 | CCNC1CCN(c2c(F)cc3c(=O)c(C(=O)O)cn(C4COC4)c3c2F)C1 (stereo not drawn) [Compound 45] | 3.13 (≈ 7.96 µM) | 1.56 (≈ 3.97 µM) | 0.39 (≈ 0.991 µM)
24 | CO[C@H]1CN(c2c(F)cc3c(=O)c(C(=O)O)cn(C4COC4)c3c2F)C[C@H]1N (relative stereo) [Compound 89] | 3.13 (≈ 7.92 µM) | 1.56 (≈ 3.95 µM) | 0.78 (≈ 1.97 µM)
25 | Nc1c(F)c(N2CCC(O)C2)c(F)c2c1c(=O)c(C(=O)O)cn2C1COC1 (stereo not drawn) [Compound 59] | 3.13 (≈ 8.21 µM) | 0.39 (≈ 1.02 µM) | 0.39 (≈ 1.02 µM)
26 | NCC1CN(c2c(F)cc3c(=O)c(C(=O)O)cn(C4COC4)c3c2F)CCO1 (stereo not drawn) [Compound 22] | > 25 | 0.78 (≈ 1.97 µM) | 6.25 (≈ 15.8 µM)
27 | CN1CCN(c2nc3c(cc2F)c(=O)c(C(=O)O)cn3C2COC2)CC1 [Compound 61, 6-Fluoro-7-(4-methylpiperazin-1-yl)-1-(oxetan-3-yl)-1,4-dihydro-4-oxo-1,8-naphthylidine-3-carboxylic acid] | 1.56 (≈ 4.31 µM) | 3.13 (≈ 8.64 µM) | 0.39 (≈ 1.08 µM)
28 | NC1CN(c2c(F)cc3c(=O)c(C(=O)O)cn(C4COC4)c3c2F)C1 [Compound 48] | 3.13 (≈ 8.91 µM) | 1.56 (≈ 4.44 µM) | 0.39 (≈ 1.11 µM)
29 | O=C(O)c1cn(C2COC2)c2nc(N3CCSC3)c(F)cc2c1=O [Compound 73] | 6.25 (≈ 17.8 µM) | 0.78 (≈ 2.22 µM) | 0.78 (≈ 2.22 µM)
30 | Nc1c(F)c(N2CCC(N)C2)c(F)c2c1c(=O)c(C(=O)O)cn2C1COC1 (stereo not drawn) [Compound 31] | 0.78 (≈ 2.05 µM) | 0.39 (≈ 1.03 µM) | 0.2 (≈ 0.526 µM)
31 | CCNC1CCN(c2c(F)cc3c(=O)c(C(=O)O)cn(C4COC4)c3c2OC)C1 (stereo not drawn) [Compound 82] | 12.5 (≈ 30.8 µM) | 0.78 (≈ 1.92 µM) | 1.56 (≈ 3.85 µM)
32 | CN[C@@H]1CN(c2c(F)c(N)c3c(=O)c(C(=O)O)cn(C4COC4)c3c2F)C[C@@H]1C (relative stereo) [Compound 94] | 1.56 (≈ 3.82 µM) | 0.78 (≈ 1.91 µM) | 0.2 (≈ 0.49 µM)
33 | CNCC1CCN(c2nc3c(cc2F)c(=O)c(C(=O)O)cn3C2COC2)C1 (stereo not drawn) [Compound 70] | 6.25 (≈ 16.6 µM) | 0.39 (≈ 1.04 µM) | 1.56 (≈ 4.14 µM)
34 | COc1c(N2CCC(N)C2)c(F)cc2c(=O)c(C(=O)O)cn(C3COC3)c12 (stereo not drawn) [Compound 76, 7-(3-Aminopyrrolidin-1-yl)-6-fluoro-8-methoxy-1-(oxetan-3-yl)-1,4-dihydro-4-oxoquinoline-3-carboxylic acid] | 1.56 (≈ 4.13 µM) | 0.2 (≈ 0.53 µM) | 0.39 (≈ 1.03 µM)
35 | Nc1c(F)c(N2CCN(O)CC2)c(F)c2c1c(=O)c(C(=O)O)cn2C1COC1 [Compound 107] | 6.25 (≈ 15.8 µM) | 3.13 (≈ 7.9 µM) | 0.78 (≈ 1.97 µM)
36 | CC1CN(c2c(F)cc3c(=O)c(C(=O)O)cn(C4COC4)c3c2F)CCN1 (stereo not drawn) [Compound 13] | 1.56 (≈ 4.11 µM) | 1.56 (≈ 4.11 µM) | 0.2 (≈ 0.527 µM)
37 | NCC1CCN(c2c(F)cc3c(=O)c(C(=O)O)cn(C4COC4)c3c2F)C1 (stereo not drawn) [Compound 20] | 3.13 (≈ 8.25 µM) | 0.2 (≈ 0.527 µM) | 1.56 (≈ 4.11 µM)
38 | CCNCC1CCN(c2c(F)c(N)c3c(=O)c(C(=O)O)cn(C4COC4)c3c2F)C1 (stereo not drawn) [Compound 53] | 3.13 (≈ 7.41 µM) | 0.1 (≈ 0.237 µM) | 0.2 (≈ 0.473 µM)
39 | CCNC1CCN(c2nc3c(cc2F)c(=O)c(C(=O)O)cn3C2COC2)C1 (stereo not drawn) [Compound 69] | 1.56 (≈ 4.14 µM) | 3.13 (≈ 8.32 µM) | 0.39 (≈ 1.04 µM)
40 | C[C@H]1CN(c2c(F)c(N)c3c(=O)c(C(=O)O)cn(C4COC4)c3c2F)C[C@H]1N (relative stereo) [Compound 103] | 0.39 (≈ 0.989 µM) | 0.2 (≈ 0.507 µM) | 0.1 (≈ 0.254 µM)
41 | CO[C@@H]1CN(c2c(F)c(N)c3c(=O)c(C(=O)O)cn(C4COC4)c3c2F)C[C@H]1N (relative stereo) [Compound 86] | 3.13 (≈ 7.63 µM) | 1.56 (≈ 3.8 µM) | 0.39 (≈ 0.95 µM)
42 | O=C(O)c1cn(C2COC2)c2c(F)c(N3Cc4ccccc4C3)c(F)cc2c1=O [Compound 9] | 3.13 (≈ 7.86 µM) | 0.2 (≈ 0.502 µM) | 0.39 (≈ 0.979 µM)
43 | O=C(O)c1cn(C2COC2)c2c(F)c(N3CCC(O)C3)c(F)cc2c1=O (stereo not drawn) [Compound 16] | 1.56 (≈ 4.26 µM) | 0.78 (≈ 2.13 µM) | 0.39 (≈ 1.06 µM)
